Legend:
human CB2R [1] = target: T1, human CB2R (Homo sapiens, UniProt P34972); experiment: HTRF (Tag-lite) saturation binding of red CB2R ligand in living HEK-293T cells expressing SNAP-CB2R
T1 construct: host or cells: HEK-293T, transient transfection, living cells

human CB2R [2] = target: T1, human CB2R; experiment: Forskolin-induced intracellular cAMP determination in HEK-293T cells expressing CB2R; type: cell-based
human CB2R [3] = target: T1, human CB2R; experiment: HTRF (Tag-lite) competition binding of red CB2R ligand in living HEK-293T cells expressing SNAP-CB2R; settings: 100 nM red CB2R ligand, low nanomolar CBD concentrations
human GPR55 = target: T2, human GPR55 (Homo sapiens, UniProt Q9Y2T6); experiment: Forskolin-induced intracellular cAMP determination in HEK-293T cells expressing GPR55; type: cell-based
T2 construct: expressed in transfected cells; host or cells: HEK-293T, transient transfection
T2 sequence (Q9Y2T6 whole entry): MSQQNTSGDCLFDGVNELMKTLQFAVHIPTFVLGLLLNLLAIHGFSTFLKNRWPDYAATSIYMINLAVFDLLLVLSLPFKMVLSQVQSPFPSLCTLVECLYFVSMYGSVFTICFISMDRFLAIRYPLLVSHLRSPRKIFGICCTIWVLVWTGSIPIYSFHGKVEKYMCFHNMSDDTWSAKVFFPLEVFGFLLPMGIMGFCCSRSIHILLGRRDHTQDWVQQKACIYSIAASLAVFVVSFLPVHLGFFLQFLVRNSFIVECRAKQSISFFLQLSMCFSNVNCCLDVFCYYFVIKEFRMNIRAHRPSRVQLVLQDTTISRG
Procedure: Two hours before initiating the experiment, growth medium was replaced by serum-free DMEM. Then, HEK-293T cells transiently expressing CB2R or GPR55 were detached and resuspended in growing medium containing 50 μM zardaverine and plated in 384-well microplates (2,500 cells/well), pretreated (15 min) with the corresponding antagonists—or vehicle—and stimulated with agonists (15 min) before adding 0.5 μM forskolin or vehicle. Readings were performed after 15 min of incubation at 25°C. HTRF measures were performed using the Lance Ultra cAMP kit (PerkinElmer, Waltham, MA, United States). Fluorescence at 665 nm was analyzed on a PHERAstar Flagship microplate reader equipped with an HTRF optical module (BMG Lab Technologies, Offenburg, Germany).

T1 sequence (P34972 whole entry): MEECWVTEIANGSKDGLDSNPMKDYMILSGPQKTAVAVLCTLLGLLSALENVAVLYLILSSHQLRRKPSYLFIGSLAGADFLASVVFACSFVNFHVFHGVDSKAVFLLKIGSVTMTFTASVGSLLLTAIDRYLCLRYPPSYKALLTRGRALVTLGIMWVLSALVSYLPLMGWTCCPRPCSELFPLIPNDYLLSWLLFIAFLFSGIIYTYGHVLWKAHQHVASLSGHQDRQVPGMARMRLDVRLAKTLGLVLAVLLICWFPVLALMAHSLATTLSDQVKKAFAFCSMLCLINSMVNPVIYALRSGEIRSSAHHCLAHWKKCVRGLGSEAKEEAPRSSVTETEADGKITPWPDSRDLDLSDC

## SR144528
Human CB2R [1]
  effect on maximum binding (Bmax) of red CB2R ligand: reduced Bmax values

## CCCC(C)(C)c1ccc2c(c1)OC(C)(C)[C@@H]1CC=C(C)C[C@@H]21 [JWH133]
Human CB2R [2]; 100 nM JWH133, data given in percentage of the 500 nM forskolin-induced cAMP concentration
  Agonist-induced reduction in cAMP: 31 ± 4

## C=C(C)[C@@H]1CCC(C)=C[C@H]1c1c(O)cc(CCCCC)cc1O [CBD, cannabidiol]
Human CB2R [3]
  reduction of fluorescent agonist binding: circa 25%
Human GPR55; 100 nM JWH133, HEK-293T transiently transfected with GPR55
  cAMP response to combined treatment with CBD and JWH133: not significantly different than that achieved by CBD alone
Human GPR55; HEK-293T cells expressing human GPR55
  cAMP signal of compound alone: results were similar to those in cells expressing the CB2R
Human CB2R [2]; concentration range 1–1,000 nM, no agonist, HEK-293T cells expressing human CB2R
  G-protein-coupled signal (cAMP) of compound alone: did not significantly engage any G-protein-coupled signal
